Measurements as given in article PMC7433010, “Exploration of multi‐target effects of 3‐benzoyl‐5‐hydroxychromen‐2‐one in Alzheimer’s disease cell and mouse models” (Aging Cell, 2020).

Experiments:
[1] = test system: ∆K280 TauRD‐DsRed‐expressing SH‐SY5Y cells; experiment: Neurite outgrowth analysis in ∆K280 TauRD‐DsRed SH‐SY5Y cells; assay type: cell-based, human; details: 1 µM
Method: On day 1, ∆K280 TauRD-DsRed-expressing SH-SY5Y cells were seeded on a 24-well plate in a density of 3 × 10^4 cells/well, with 10 µM retinoic acid (Sigma-Aldrich) added to induce neuronal differentiation. On the second day, the cells were treated with licochalcone A (1 µM), LM-031 (1 µM), or congo red (10 µM) for 8 h and ∆K280 TauRD-DsRed expression was induced as described. After seven days, the cells were washed with phosphate-buffered saline (PBS) and fixed in 4% paraformaldehyde in PBS for 15 min. After permeabilized with 0.1% Triton X-100 in PBS for 10 min and blocked by 3% BSA in PBS for 20 min, cells were stained with primary neuronal class III β-tubulin (TUBB3) antibody (1:1000; Covance, Princeton, NJ, USA) at 4°C overnight and secondary anti-rabbit Alexa Fluor ®555 antibody (1:1000; Invitrogen) at room temperature for 3 h. After nuclei were stained with DAPI for 30 min, neuronal images were captured using the high-content imaging system as described and analyzed using the Neurite Outgrowth Application Module (Molecular Devices).
To knock down CREB expression in ∆K280 TauRD-DsRed SH-SY5Y cells, lentiviral short hairpin RNA (shRNA) targeting CREB (TRCN0000226466), NRF2 (TRCN0000007558), and a negative control scrambled (TRC2.Void) were obtained from National RNAi Core Facility, IMB/GRC, Academia Sinica, Taipei, Taiwan. On day 1, cells were plated on 6-well plates (for protein analysis) or 24-well plates (for neurite outgrowth analysis) in the presence of retinoic acid as described. On the second day, the cells were infected with lentivirus (multiplicity of infection: 3) in medium with polybrene (8 µg/mL; Sigma-Aldrich). On day 3, the culture medium was changed and the cells were pretreated with LM-031 (1 µM) for 8 h, followed by induction of ∆K280 TauRD-DsRed expression. On day 9, the cells were collected for NRF2, CREB, pCREB, and cleaved CASP3 protein analysis or analyzed for neurite outgrowth as described.

NeuN = experiment: Immunohistochemistry of NeuN in hippocampus of STZ‐treated 3 × Tg‐AD mice; assay type: in vivo, mouse; details: – STZ 100%
Method: (§1) Mice harboring APPSwe, PS1M146V, and […] transgenes (3×Tg-AD) (Oddo et al., 2003) were purchased from the Jackson Laboratory (004807; Bar Harbor, ME, USA). Six-month-old male homozygous 3×Tg-AD mice were group housed at 20–25°C and 60% relative humidity under a daily 12-h light/12-h dark cycle, with assess to food and water ad libitum. Mice were randomly divided into 3 groups: – streptozocin (STZ), STZ, and STZ/LM-031 (n = 10 per group). STZ-induced hyperglycemia was used to accelerate the development of AD phenotype (Chen et al., 2014). Briefly, the mice were fasted for 12 h each day prior to intraperitoneal (i.p.) injection of STZ ([…]; Sigma-Aldrich) or vehicle (0.1 M sodium citrate pH4.5) for 4 times (days 2, 3, 9, and 10) (Chen et al., 2019). Mouse body weight was measured and blood glucose level was measured on days 1, 8, 15, 22, and 29 using a blood glucose meter (Bioland Technology, Taipei, Taiwan). LM-031 (40 mg/kg) or vehicle (DMSO:Cremophor EL:0.9% saline = 1:2:7) was intraperitoneally injected every day for 22 days from days 15 to 36. All animal procedures were ethically approved by the Institutional Animal Care and Use Committee of National Taiwan Normal University, Taipei, Taiwan (Permit Number: 103002) and were conducted in compliance with the ARRIVE (Animal Research: Reporting In Vivo Experiments) guidelines.
Mouse brains were removed, postfixed in 4% paraformaldehyde overnight, and cryopreserved in 30% sucrose solution at 4°C. Series of coronal brain sections (30 µm) were cut in a cryostat (Leica RM2125 RTS, Leica, Wetzlar, Germany). Heat-induced antigen retrieval for immunohistochemistry (IHC) was performed using antigen retrieval buffer (pH9.0, Thermo Fisher Scientific) to break methylene bridges and expose antigenic sites, allowing antibodies to bind. […] The sections were then washed and detected by using the UltraVision™ Quanto detection system containing horseradish peroxidase and chromogenic diaminobenzidine substrate (Thermo Fisher Scientific). […]

NRF2 = experiment: Western blot of NRF2 in hippocampus of STZ‐treated 3 × Tg‐AD mice; assay type: in vivo, mouse; details: STZ 53%, – STZ 100%
Method: In addition, isolated hippocampal and cortex tissues from transgenic mice (as described in Animal studies) were homogenized and extracted proteins (10 µg) were separated and blotted. After being blocked, the membranes were probed with antibody against mouse NRF2 (1:500; Sigma-Aldrich), CREB (1:500; Millipore), pCREB (S133) (1:1000; Millipore), or GAPDH (1:1000; MDBio), and the immune complexes detected as described above.
as §1, with “LM-031 (40 mg/kg) or vehicle (DMSO:Cremophor EL:0.9% saline = 1:2:7) was intraperitoneally injected every day for 22 days from days 15 to 36. All animal procedures were ethically approved by the Institutional Animal Care and Use Committee of National Taiwan Normal University, Taipei, Taiwan (Permit Number: 103002) and were conducted in compliance with the ARRIVE (Animal Research: Reporting In Vivo Experiments) guidelines.” left out

## O=C(c1ccccc1)c1cc2c(O)cccc2oc1=O [LM‐031, 3‐benzoyl‐5‐hydroxychromen‐2‐one]
[1]; CREB‐specific shRNA‐infected cells, untreated 46 µm
  neurite length: 51 µm
[1]; NRF2‐specific shRNA‐infected cells, untreated 42 µm
  neurite length: 46 µm
[1]; scrambled shRNA‐infected cells, untreated 48 µm
  neurite length: 53 µm
NeuN; STZ 89%
  NeuN level, CA1: 96%
NeuN; STZ 90%
  NeuN level, dentate gyrus (DG): 97%
NeuN; STZ 91%
  NeuN level, CA3: 95%
NRF2
  NRF2 level in hippocampus: 92%
